According to patent US12577227B2, “WDR5 inhibitors and modulators” (Vanderbilt University, priority 2019, dated 2026):

Each compound was assayed on MV4:11 human cancer cell lines (assay: Cellular viability / anti-proliferative activity (CellTiter-Glo)). Conditions: MV4-11, 120 h, MV-4-11 cells, 5 day protocol, mean of minimum two replicates, read-out: GI50 on cellular proliferation of MV4:11 human cancer cell lines.
Assay type: cell-based
Method: Cellular Viability of Human Tumor Cell Lines
Anti-Proliferative Activity Using MLL-Harboring Cell Lines.
MV-4-11 and K562 cells are grown in IMDM media supplemented with 10% FBS and […], Molm-13 cells are cultured in RPMI-1640 media supplemented with 10% FBS and 1% o penicillin/streptomycin. Viability assays are performed by dispensing 200 cells at 7200 cells/mL into each well of an opaque 384-well plate and adding compounds at the indicated concentrations in a final volume of 32 μL and a final concentration of DMSO of 0.3% for all samples. A certain range of compound concentrations is made through a series of 2-fold dilutions starting 30 μM at the highest, total 22 dilutions. After a set incubation period, 5 day protocol, the viability of cells in each well is assessed using the CellTiter-Glo assay (Promega), read on a 96 Microplane Luminometer (Cytation 3, BioTek). Serial dilutions of each cell type are performed in all assays to generate standard curves and the final densities of cells are determined within the dynamic range of the instrument. GI50 values are calculated based on XLfit software (IDBS, Guildford, UK) with Sigmoidal Dose-Response Model. Each compound is tested in minimum of two replicates. Data are expressed as mean.

Going from `COc1ccnc([C@H](C)N2CCOc3c(cc(Cn4cnn(C)c4=N)cc3-c3ccc(F)cc3Cl)C2=O)c1` [Example 54, (S)-9-(2-Chloro-4-fluorophenyl)-7-((5-imino-1-methyl-1,5-dihydro-4H-1,2,4-triazol-4-yl)methyl)-4-(1-(4-methoxypyridin-2-yl)ethyl)-3,4-dihydrobenzo[f][1,4]oxazepin-5(2H)-one] to `COc1ccnc([C@H](C)N2CCOc3c(cc(Cn4cnn(C)c4=N)cc3-c3cn(C)nc3C(F)(F)F)C2=O)c1` [Example 53, (S)-7-((5-Imino-1-methyl-1,5-dihydro-4H-1,2,4-triazol-4-yl)methyl)-4-(1-(4-methoxypyridin-2-yl)ethyl)-9-(1-methyl-3-(trifluoromethyl)-1H-pyrazol-4-yl)-3,4-dihydrobenzo[f][1,4]oxazepin-5(2H)-one], the GI50 rises from 9 nM to 67 nM (7.4-fold).

Compared with `CCc1cc(C(=O)NCCN(C)C)c2nccc(N3CCOc4c(cc(Cn5ccnc5)cc4-c4cn(C)nc4C(F)(F)F)C3=O)c2c1` [Example 73, 4-(7-((1H-imidazol-1-yl)methyl)-9-(1-methyl-3-(trifluoromethyl)-1H-pyrazol-4-yl)-5-oxo-2,3-dihydrobenzo[f][1,4]oxazepin-4(5H)-yl)-N-(2-(dimethylamino)ethyl)-6-ethylquinoline-8-carboxamide], `CCc1nccn1Cc1cc2c(c(-c3cn(C)nc3C(F)(F)F)c1)OCCN(Cc1cc(C)ccn1)C2=O` [Example 37, 7-((2-Ethyl-1H-imidazol-1-yl)methyl)-9-(1-methyl-3-(trifluoromethyl)-1H-pyrazol-4-yl)-4-((4-methylpyridin-2-yl)methyl)-3,4-dihydrobenzo[f][1,4]oxazepin-5(2H)-one] is 4.2-fold higher in GI50: 255 nM for the first, 1080 nM for the second.

`COc1cc(Cn2cnc3c(-c4ccc(F)cc4C)cc(Cc4c[nH]c5ccccc45)cc3c2=O)cc(OC)c1` [Example 2, 6-((1H-Indol-3-yl)methyl)-3-(3,5-dimethoxybenzyl)-8-(4-fluoro-2-methylphenyl)quinazolin-4(3H)-one] and `COc1cc(CN2C[C@H](C)Oc3c(cc(Cn4ccnc4C)cc3-c3ccc(F)cc3C)C2=O)cc(OC)c1` [Example 36, (S)-4-(3,5-Dimethoxybenzyl)-9-(4-fluoro-2-methylphenyl)-2-methyl-7-((2-methyl-1H-imidazol-1-yl)methyl)-3,4-dihydrobenzo[f][1,4]oxazepin-5(2H)-one] cannot be ordered by GI50: over 940 nM for the first, 2430 nM for the second.

First: Cc1ccnc(CN2C[C@@H](C)Oc3c(cc(Cn4ccnc4C)cc3-c3cn(C)nc3C(F)(F)F)C2=O)c1 [Example 40, (R)-2-Methyl-7-((2-methyl-1H-imidazol-1-yl)methyl)-9-(1-methyl-3-(trifluoromethyl)-1H-pyrazol-4-yl)-4-((4-methylpyridin-2-yl)methyl)-3,4-dihydrobenzo[f][1,4]oxazepin-5(2H)-one]
Second: CCc1nccn1Cc1cc2c(c(-c3cn(C)nc3C(F)(F)F)c1)OCCN(Cc1cc(C)cc(C)n1)C2=O [Example 38, 4-((4,6-Dimethylpyridin-2-yl)methyl)-7-((2-ethyl-1H-imidazol-1-yl)methyl)-9-(1-methyl-3-(trifluoromethyl)-1H-pyrazol-4-yl)-3,4-dihydrobenzo[f][1,4]oxazepin-5(2H)-one]
The GI50 of the first is 2-fold higher: 529 nM for the first, 262 nM for the second.

Going from `Cc1cc(C)nc(CN2CCOc3c(cc(Cn4ccnc4C)cc3-c3ccccc3C)C2=O)c1` [Example 45, 4-((4,6-Dimethylpyridin-2-yl)methyl)-7-((2-methyl-1H-imidazol-1-yl)methyl)-9-(o-tolyl)-3,4-dihydrobenzo[f][1,4]oxazepin-5(2H)-one] to `Cc1cc(C)nc(CN2CCOc3c(cc(Cn4ccnc4C)cc3-c3ccc(F)cc3Cl)C2=O)c1` [Example 48, 9-(2-Chloro-4-fluorophenyl)-4-((4,6-dimethylpyridin-2-yl)methyl)-7-((2-methyl-1H-imidazol-1-yl)methyl)-3,4-dihydrobenzo[f][1,4]oxazepin-5(2H)-one], the GI50 falls from 157 nM to 95 nM (1.7-fold).

Going from `Cc1cc(C)nc(CN2CCOc3c(cc(Cn4ccnc4C)cc3-c3scnc3C)C2=O)c1` [Example 46, 4-((4,6-Dimethylpyridin-2-yl)methyl)-7-((2-methyl-1H-imidazol-1-yl)methyl)-9-(4-methylthiazol-5-yl)-3,4-dihydrobenzo[f][1,4]oxazepin-5(2H)-one] to `Cc1ccnc(CN2CCOc3c(cc(Cn4ccnc4C)cc3-c3ccc(F)cc3C)C2=O)c1` [Example 25, 9-(4-Fluoro-2-methylphenyl)-7-((2-methyl-1H-imidazol-1-yl)methyl)-4-((4-methylpyridin-2-yl)methyl)-3,4-dihydrobenzo[f][1,4]oxazepin-5(2H)-one], the GI50 falls from 703 nM to 300 nM (2.3-fold).

First: COc1cc(CN2C[C@H](C)Oc3c(cc(Cn4ccn(C)c4=N)cc3-c3ccc(F)cc3C)C2=O)cc(OC)c1 [Example 35, (S)-4-(3,5-Dimethoxybenzyl)-9-(4-fluoro-2-methylphenyl)-7-((2-imino-3-methyl-2,3-dihydro-1H-imidazol-1-yl)methyl)-2-methyl-3,4-dihydrobenzo[f][1,4]oxazepin-5(2H)-one]
Second: COc1cc(CN2C[C@@H](C)Oc3c(cc(Cn4ccn(C)c4=N)cc3-c3ccc(F)cc3C)C2=O)cc(OC)c1 [Example 33, (R)-4-(3,5-dimethoxybenzyl)-9-(4-fluoro-2-methylphenyl)-7-((2-imino-3-methyl-2,3-dihydro-1H-imidazol-1-yl)methyl)-2-methyl-3,4-dihydrobenzo[f][1,4]oxazepin-5(2H)-one]
The GI50 of the first is 2.4-fold higher: 306 nM for the first, 130 nM for the second.

Going from `COc1cc(CN2CC(=O)Nc3c(cc(Cn4ccn(C)c4=N)cc3-c3ccc(F)cc3C)C2=O)cc(OC)c1` [Example 14, 4-(3,5-Dimethoxybenzyl)-9-(4-fluoro-2-methylphenyl)-7-((2-imino-3-methyl-2,3-dihydro-1H-imidazol-1-yl)methyl)-3,4-dihydro-1H-benzo[e][1,4]diazepine-2,5-dione] to `Cc1cc(C)nc(CN2CCOc3c(cc(Cn4ccn(C)c4=N)cc3-c3ccc(F)cc3C)C2=O)c1` [Example 12, 4-((4,6-Dimethylpyridin-2-yl)methyl)-9-(4-fluoro-2-methylphenyl)-7-((2-imino-3-methyl-2,3-dihydro-1H-imidazol-1-yl)methyl)-3,4-dihydrobenzo[f][1,4]oxazepin-5(2H)-one], the GI50 falls from 167 nM to 3.5 nM (48-fold).

Compared with `CCc1nccn1Cc1cc2c(c(-c3cn(CC)nc3C(F)(F)F)c1)OCCN([C@H](c1cc(OC)ccn1)C1CC1)C2=O` [Example 61, (S)-4-(Cyclopropyl(4-methoxypyridin-2-yl)methyl)-7-((2-ethyl-1H-imidazol-1-yl)methyl)-9-(1-ethyl-3-(trifluoromethyl)-1H-pyrazol-4-yl)-3,4-dihydrobenzo[f][1,4]oxazepin-5(2H)-one], `CCn1cc(-c2cc(Cn3ccnc3)cc3c(=O)n([C@H](c4cc(OC)ccn4)C4CC4)cnc23)c(C(F)(F)F)n1` [Example 62, (S)-6-((1H-imidazol-1-yl)methyl)-3-(cyclopropyl(4-methoxypyridin-2-yl)methyl)-8-(1-ethyl-3-(trifluoromethyl)-1H-pyrazol-4-yl)quinazolin-4(3H)-one] is 8.7-fold higher in GI50: 158 nM for the first, 1380 nM for the second.

For `Cc1ccnc(CN2CCOc3c(cc(Cn4ccn(C)c4=N)cc3-c3ccc(F)cc3C)C2=O)c1` [Example 11, 9-(4-Fluoro-2-methylphenyl)-7-((2-imino-3-methyl-2,3-dihydro-1H-imidazol-1-yl)methyl)-4-((4-methylpyridin-2-yl)methyl)-3,4-dihydrobenzo[f][1,4]oxazepin-5(2H)-one], the GI50 was 11 nM.
